{
  "source": "patent US7271148B2",
  "about": "“Inhibition of cellular proteases” (The Board of Regents of The University of Texas System, priority 1999, dated 2007)",
  "biological_target": "T1, μ-calpain (Homo sapiens, UniProt P07384)",
  "T1 construct": "purchased Calbiochem (San Diego, Calif.)",
  "T1 sequence (P07384 1-714)": "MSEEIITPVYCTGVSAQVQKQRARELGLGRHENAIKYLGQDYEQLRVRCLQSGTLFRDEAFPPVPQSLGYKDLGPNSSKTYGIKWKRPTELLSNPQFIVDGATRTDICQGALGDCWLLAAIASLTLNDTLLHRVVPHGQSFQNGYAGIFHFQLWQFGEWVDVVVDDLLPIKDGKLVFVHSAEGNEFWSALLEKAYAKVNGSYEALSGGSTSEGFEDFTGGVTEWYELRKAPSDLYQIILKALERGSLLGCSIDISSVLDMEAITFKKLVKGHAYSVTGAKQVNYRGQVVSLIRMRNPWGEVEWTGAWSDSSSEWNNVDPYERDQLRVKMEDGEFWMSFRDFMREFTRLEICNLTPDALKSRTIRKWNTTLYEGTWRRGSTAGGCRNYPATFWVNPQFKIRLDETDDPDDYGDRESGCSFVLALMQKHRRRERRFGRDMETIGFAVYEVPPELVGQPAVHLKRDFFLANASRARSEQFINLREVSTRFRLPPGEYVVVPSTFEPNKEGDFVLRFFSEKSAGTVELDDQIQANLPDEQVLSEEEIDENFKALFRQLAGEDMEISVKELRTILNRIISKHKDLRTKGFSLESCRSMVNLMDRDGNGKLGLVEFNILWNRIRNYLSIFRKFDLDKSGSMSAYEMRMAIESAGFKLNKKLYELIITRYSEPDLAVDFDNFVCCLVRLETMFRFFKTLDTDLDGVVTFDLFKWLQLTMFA",
  "T1 sequence (P04632 1-268 partner)": "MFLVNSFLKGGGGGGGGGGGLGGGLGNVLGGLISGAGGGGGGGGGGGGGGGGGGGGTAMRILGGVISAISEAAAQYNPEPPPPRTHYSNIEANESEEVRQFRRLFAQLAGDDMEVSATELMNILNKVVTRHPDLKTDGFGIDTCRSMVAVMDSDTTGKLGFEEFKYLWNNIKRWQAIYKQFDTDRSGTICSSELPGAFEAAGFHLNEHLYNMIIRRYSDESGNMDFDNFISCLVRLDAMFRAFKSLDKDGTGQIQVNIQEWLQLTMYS",
  "test": "Cleavage of purified recombinant p21cip1 by purified μ-calpain",
  "format": "biochemical",
  "settings": "E64d 100 μM; 0.4 μg p21^cip1, 0.004 units μ-calpain, 30 min at 30° C.; Western blot (FIG. 19)",
  "description": "Cleavage of p21^cip1 by calpain. Recombinant p21^cip1 was provided by Harper (37) or Ke (47), and was also prepared using the expression plasmid pET-p21 (37) according to the published methods (30). To evaluate the effect of calpains on p21^cip1, 400 ng of purified recombinant p21^cip1 was incubated with 0.004 units of either pure μ-calpain or m-calpain at 30° C. for 30 minutes in 40 μl of cleavage buffer, containing 25 mM Tris-HCl (pH 7.5), 100 mM NaCl, 3 mM DTT and 5 mM CaCl2 (44). EDTA was added to 10 mM to stop the reaction. An equal volume of 2×SDS gel-loading buffer (18) was mixed with the digestion mixture and the mixture was immediately boiled for 5 min. The digestion products were evaluated by Western blot analysis or SDS-PAGE and coomassie brilliant blue staining.\nFIGS. 19 and 20. Cleavage of purified recombinant p21^cip1 by purified ubiquitous calpains. 19. p21^cip1 (0.4 μg) was incubated with μ-calpain (0.004 units) for 30 min at 30° C. in the presence or absence of E64d (100 μM) and the resulting products were analyzed by Western blot analysis, as described in Materials and Methods 20. p21^cip1 (4 μg) or casein (3 μg) was incubated with 0.04 units of μ-calpain or m-calpain for 30 min at 30° C. and the products of the digestion were examined by SDS-PAGE and coomassie brilliant blue staining. […]",
  "data": [
    {"smiles": "CC(C)C[C@H](NC(=O)[C@H]1O[C@@H]1C(=O)O)C(=O)NCCCCN=C(N)N", "note": "(relative stereo) [E64d, trans-epoxysuccinyl-L-leucylamido (4-guanidino)-butane]", "values": [
      {"measurement": "proteolysis of p21^cip1 by μ-calpain (in words)", "value": "inhibited the proteolysis"}
    ]}
  ]
}
